Data from publication PMC5075789, “Orphan GPR110 (ADGRF1) targeted by N-docosahexaenoylethanolamine in development of neurons and cognitive function” (Nature Communications, 2016).

Tests used:
[1] = biological target: T1, mGPR110-HA (mouse GPR110) (Mus musculus, UniProt Q8VEC3); assay: in-cell cross-linking (DSS), streptavidin pull-down, western blot; type: cell-based; settings: 1 μM G1*, live HEK293 cells, 25 °C; cross-linked by 1 mM DSS
T1 construct: gene Adgrf1; full-length ORF, C-terminal HA tag kept, expressed in HEK293; about 100 kD main band
T1 sequence (Q8VEC3 21-564): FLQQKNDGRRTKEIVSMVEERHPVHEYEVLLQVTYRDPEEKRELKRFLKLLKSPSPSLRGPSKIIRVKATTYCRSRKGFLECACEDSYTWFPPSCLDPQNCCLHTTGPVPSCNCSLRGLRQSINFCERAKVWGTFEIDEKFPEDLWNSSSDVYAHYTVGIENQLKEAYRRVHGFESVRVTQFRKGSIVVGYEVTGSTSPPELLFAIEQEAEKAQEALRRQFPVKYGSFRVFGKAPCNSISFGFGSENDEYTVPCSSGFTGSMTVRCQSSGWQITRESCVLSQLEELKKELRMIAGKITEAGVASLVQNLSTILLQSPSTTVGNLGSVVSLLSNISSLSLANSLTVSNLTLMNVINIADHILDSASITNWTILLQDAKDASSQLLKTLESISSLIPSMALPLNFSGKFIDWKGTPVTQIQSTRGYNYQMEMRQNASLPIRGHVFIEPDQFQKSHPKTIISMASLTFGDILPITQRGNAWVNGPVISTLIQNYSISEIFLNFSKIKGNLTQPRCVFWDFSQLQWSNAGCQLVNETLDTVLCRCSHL
T1 sequence (Q8VEC3 565-908): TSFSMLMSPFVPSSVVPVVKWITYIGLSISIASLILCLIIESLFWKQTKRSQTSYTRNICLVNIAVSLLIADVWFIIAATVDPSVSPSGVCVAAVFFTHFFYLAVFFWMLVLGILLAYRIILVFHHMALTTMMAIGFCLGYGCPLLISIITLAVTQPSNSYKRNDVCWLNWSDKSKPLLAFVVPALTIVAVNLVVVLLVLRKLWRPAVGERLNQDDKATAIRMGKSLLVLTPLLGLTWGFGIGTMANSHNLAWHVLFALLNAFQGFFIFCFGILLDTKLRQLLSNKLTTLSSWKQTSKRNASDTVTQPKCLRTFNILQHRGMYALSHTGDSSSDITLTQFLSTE

[2] = biological target: T1, mGPR110-HA (mouse GPR110); assay: streptavidin pull-down and western blot; type: binding; settings: 1 μM G1, HEK293 lysate, PBS with 0.5% Triton X-100
[3] = biological target: T2, hGPR110-HA (human GPR110, ADGRF1) (Homo sapiens, UniProt Q5T601); assay: streptavidin pull-down and western blot; type: binding; settings: 1 μM G1, HEK293 lysate
T2 construct: full-length ORF, 910 residues, C-terminal HA tag kept, expressed in HEK293 (CRE-luc2P HEK293 for cAMP); immunopurified with anti-HA for MST; glycosylated, about 130 and 110 kD
T2 sequence (Q5T601 20-566): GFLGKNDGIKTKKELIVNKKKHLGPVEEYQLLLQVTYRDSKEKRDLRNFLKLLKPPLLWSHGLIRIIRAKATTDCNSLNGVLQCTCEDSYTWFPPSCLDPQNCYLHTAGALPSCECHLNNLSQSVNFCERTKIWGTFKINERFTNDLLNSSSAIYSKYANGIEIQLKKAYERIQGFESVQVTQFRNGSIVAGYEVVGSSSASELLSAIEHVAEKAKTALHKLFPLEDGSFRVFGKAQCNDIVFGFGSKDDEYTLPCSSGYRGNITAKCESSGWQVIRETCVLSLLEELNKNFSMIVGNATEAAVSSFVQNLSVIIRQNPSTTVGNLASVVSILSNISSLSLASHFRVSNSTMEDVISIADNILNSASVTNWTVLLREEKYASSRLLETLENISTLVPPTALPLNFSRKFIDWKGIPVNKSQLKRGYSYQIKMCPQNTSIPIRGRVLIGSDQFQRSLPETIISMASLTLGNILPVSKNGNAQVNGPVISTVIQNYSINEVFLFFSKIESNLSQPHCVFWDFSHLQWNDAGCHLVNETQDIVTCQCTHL
T2 sequence (Q5T601 567-910): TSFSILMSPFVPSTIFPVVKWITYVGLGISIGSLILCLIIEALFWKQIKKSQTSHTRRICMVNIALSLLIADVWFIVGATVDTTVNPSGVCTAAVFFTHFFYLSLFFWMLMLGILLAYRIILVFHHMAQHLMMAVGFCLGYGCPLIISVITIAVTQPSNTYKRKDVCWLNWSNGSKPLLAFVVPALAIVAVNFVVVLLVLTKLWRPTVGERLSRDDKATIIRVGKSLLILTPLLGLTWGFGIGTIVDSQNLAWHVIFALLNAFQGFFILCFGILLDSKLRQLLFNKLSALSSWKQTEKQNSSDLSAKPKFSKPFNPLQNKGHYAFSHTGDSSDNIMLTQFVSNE

[4] = biological target: T2, hGPR110-HA (human GPR110, ADGRF1); assay: microscale thermophoresis; settings: read-out: apparent Kd
From the text: microscale thermophoresis on hGPR110-HA (human GPR110, ADGRF1) | immunopurified hGPR110 and bodipy-synaptamide, a fluorescent synaptamide analogue, indicated apparent Kd

Question: How did the “in-cell cross-linking (DSS), streptavidin pull-down, western blot” value [1] turn out when `CC/C=C\C/C=C\C/C=C\C/C=C\C/C=C\C/C=C\CCC(=O)NCCCC(CCCN)NC(=O)CCCC[C@@H]1SC[C@@H]2NC(=O)N[C@@H]21` (stereo partly drawn) [G1*, (4Z,7Z,10Z,13Z,16Z,19Z)-N-(7-amino-4-(5-((3aS,4S,6aR)-2-oxohexahydro-1H-thieno(3,4-d)imidazol-4-yl)pentanamido)heptyl)docosa-4,7,10,13,16,19-hexaenamide] was run?
Answer: confirming G1* binding to GPR110-HA in live HEK cells

Question: What does the source list for `CC/C=C\C/C=C\C/C=C\C/C=C\C/C=C\C/C=C\CCC(=O)NCCNC(=O)CCCC[C@@H]1SC[C@@H]2NC(=O)N[C@@H]21` [G1, (4Z,7Z,10Z,13Z,16Z,19Z)-N-(2-(5-((3aS,4S,6aR)-2-oxohexahydro-1H-thieno(3,4-d)imidazol-4-yl)pentanamido)ethyl)docosa-4,7,10,13,16,19-hexaenamide]?
Answer: streptavidin pull-down and western blot [2]: confirming binding of G1 to the expressed mGPR110-HA; streptavidin pull-down and western blot [3]: hGPR110 showed G1 binding which was displaced by synaptamide

Question: `CC/C=C\C/C=C\C/C=C\C/C=C\C/C=C\C/C=C\CCC(=O)NCCNC(=O)CCCCC1=C2C(C)=CC(C)=[N+]2[B-](F)(F)n2c(C)cc(C)c21` [bodipy-synaptamide, 10-(5-((2-((4Z,7Z,10Z,13Z,16Z,19Z)-docosa-4,7,10,13,16,19-hexaenamido)ethyl)amino)-5-oxopentyl)-5,5-difluoro-1,3,7,9-tetramethyl-5H-dipyrrolo(1,2-c:2',1'-f)(1,3,2)diazaborinin-4-ium-5-uide] was tested. Which Kd [4] did it give?
Answer: ~20 nM
